Results reported in the NIST ThermoML archive (doi:10.1021/je300017m).
Several values for one entry are separate records, joined by “and”; a condition that tells them apart may be missing. Identical values can stand only once. ± gives the expanded uncertainty stated by the source.

Legend:
[1] = mn = molality of the nth substance listed, in mol/kg; conditions: 101 kPa, Liquid
[2] = 101 kPa, Liquid

CCCCCCCCCCCCn1cc[n+](C)c1.[Br-] [1-dodecyl-3-methylimidazolium bromide] + C[S+](C)[O-]
[1]
Conditions | mass density [kg/m3]
293.15 K, m1 = 0.00397 | 1100.23 ± 0.28
293.15 K, m1 = 0.00623 | 1100.24 ± 0.28
293.15 K, m1 = 0.00818 | 1100.25 ± 0.28
293.15 K, m1 = 0.01037 | 1100.26 ± 0.28
293.15 K, m1 = 0.01216 | 1100.26 ± 0.28
293.15 K, m1 = 0.01421 | 1100.27 ± 0.28
293.15 K, m1 = 0.01656 | 1100.28 ± 0.28
293.15 K, m1 = 0.01857 | 1100.29 ± 0.28
293.15 K, m1 = 0.02122 | 1100.3 ± 0.28
293.15 K, m1 = 0.02403 | 1100.31 ± 0.28
303.15 K, m1 = 0.00371 | 1090.4 ± 0.27
303.15 K, m1 = 0.00614 | 1090.4 ± 0.28
303.15 K, m1 = 0.00792 | 1090.41 ± 0.28
303.15 K, m1 = 0.00994 | 1090.42 ± 0.28
303.15 K, m1 = 0.0118 | 1090.43 ± 0.28
303.15 K, m1 = 0.01399 | 1090.44 ± 0.28
303.15 K, m1 = 0.01604 | 1090.45 ± 0.28
303.15 K, m1 = 0.01817 | 1090.46 ± 0.28
303.15 K, m1 = 0.01986 | 1090.47 ± 0.28
303.15 K, m1 = 0.02211 | 1090.48 ± 0.28
308.15 K, m1 = 0.00436 | 1085.43 ± 0.27
308.15 K, m1 = 0.00683 | 1085.43 ± 0.27
308.15 K, m1 = 0.00903 | 1085.45 ± 0.27
308.15 K, m1 = 0.01149 | 1085.46 ± 0.27
308.15 K, m1 = 0.01349 | 1085.47 ± 0.27
308.15 K, m1 = 0.01606 | 1085.48 ± 0.27
308.15 K, m1 = 0.01812 | 1085.49 ± 0.27
308.15 K, m1 = 0.02147 | 1085.51 ± 0.27
308.15 K, m1 = 0.02348 | 1085.52 ± 0.27
308.15 K, m1 = 0.02922 | 1085.55 ± 0.27
313.15 K, m1 = 0.00453 | 1080.48 ± 0.27
313.15 K, m1 = 0.00685 | 1080.5 ± 0.27
313.15 K, m1 = 0.00907 | 1080.51 ± 0.27
313.15 K, m1 = 0.01123 | 1080.52 ± 0.27
313.15 K, m1 = 0.01315 | 1080.53 ± 0.27
313.15 K, m1 = 0.01625 | 1080.55 ± 0.27
313.15 K, m1 = 0.01812 | 1080.56 ± 0.27
313.15 K, m1 = 0.02054 | 1080.57 ± 0.27
313.15 K, m1 = 0.02269 | 1080.59 ± 0.27

CCCCCCCCn1cc[n+](C)c1.[Br-] [1-methyl-3-octylimidazolium bromide] + C[S+](C)[O-]
[1]
Conditions | mass density [kg/m3]
293.15 K, m1 = 0.00222 | 1100.28 ± 0.28
293.15 K, m1 = 0.00411 | 1100.33 ± 0.28
293.15 K, m1 = 0.00639 | 1100.39 ± 0.28
293.15 K, m1 = 0.00868 | 1100.45 ± 0.28
293.15 K, m1 = 0.01098 | 1100.51 ± 0.28
293.15 K, m1 = 0.01287 | 1100.56 ± 0.28
293.15 K, m1 = 0.0156 | 1100.63 ± 0.28
293.15 K, m1 = 0.01754 | 1100.68 ± 0.28
293.15 K, m1 = 0.01986 | 1100.74 ± 0.28
293.15 K, m1 = 0.0222 | 1100.8 ± 0.28
303.15 K, m1 = 0.00254 | 1090.41 ± 0.28
303.15 K, m1 = 0.00588 | 1090.5 ± 0.28
303.15 K, m1 = 0.00888 | 1090.58 ± 0.28
303.15 K, m1 = 0.01151 | 1090.65 ± 0.28
303.15 K, m1 = 0.01491 | 1090.74 ± 0.28
303.15 K, m1 = 0.01758 | 1090.81 ± 0.28
303.15 K, m1 = 0.02064 | 1090.89 ± 0.28
303.15 K, m1 = 0.02333 | 1090.96 ± 0.28
303.15 K, m1 = 0.02681 | 1091.05 ± 0.28
303.15 K, m1 = 0.03031 | 1091.14 ± 0.28
308.15 K, m1 = 0.00216 | 1085.43 ± 0.27
308.15 K, m1 = 0.00471 | 1085.5 ± 0.27
308.15 K, m1 = 0.00692 | 1085.56 ± 0.27
308.15 K, m1 = 0.00913 | 1085.62 ± 0.27
308.15 K, m1 = 0.01398 | 1085.75 ± 0.28
308.15 K, m1 = 0.01624 | 1085.81 ± 0.28
308.15 K, m1 = 0.01888 | 1085.88 ± 0.28
308.15 K, m1 = 0.02155 | 1085.95 ± 0.28
308.15 K, m1 = 0.02348 | 1086 ± 0.28
308.15 K, m1 = 0.02616 | 1086.07 ± 0.28
313.15 K, m1 = 0.00623 | 1080.57 ± 0.27
313.15 K, m1 = 0.01004 | 1080.67 ± 0.27
313.15 K, m1 = 0.01351 | 1080.76 ± 0.27
313.15 K, m1 = 0.01667 | 1080.84 ± 0.27
313.15 K, m1 = 0.01987 | 1080.92 ± 0.27
313.15 K, m1 = 0.02275 | 1080.99 ± 0.27
313.15 K, m1 = 0.02686 | 1081.09 ± 0.27
313.15 K, m1 = 0.02946 | 1081.15 ± 0.27
313.15 K, m1 = 0.03287 | 1081.23 ± 0.27
313.15 K, m1 = 0.03631 | 1081.31 ± 0.27

C[S+](C)[O-] [dimethyl sulfoxide]
[2]
Conditions | mass density
293.15 K | 1100.22 ± 0.28 kg/m3
303.15 K | 1090.37 ± 0.28 kg/m3 [middle of 4 runs]
308.15 K | 1085.41 ± 0.28 kg/m3 and 1085.42 ± 0.27 kg/m3
313.15 K | 1080.45 ± 0.27 kg/m3 and 1080.43 ± 0.27 kg/m3 and 1080.47 ± 0.27 kg/m3

C[S+](C)[O-] [dimethyl sulfoxide] + CCCCCCCCCCCCn1cc[n+](C)c1.[Br-]
[1], m2 = 0
Conditions | mass density [kg/m3]
293.15 K | 1100.22 ± 0.28
303.15 K | 1090.38 ± 0.27
308.15 K | 1085.41 ± 0.27
313.15 K | 1080.47 ± 0.27

C[S+](C)[O-] [dimethyl sulfoxide] + CCCCCCCCCCn1cc[n+](C)c1.[Br-]
[1], m2 = 0
Conditions | mass density [kg/m3]
293.15 K | 1100.22 ± 0.28
303.15 K | 1090.37 ± 0.28
308.15 K | 1085.42 ± 0.27
313.15 K | 1080.45 ± 0.27

C[S+](C)[O-] [dimethyl sulfoxide] + CCCCCCCCn1cc[n+](C)c1.[Br-]
[1], m2 = 0
Conditions | mass density [kg/m3]
293.15 K | 1100.22 ± 0.28
303.15 K | 1090.34 ± 0.28
308.15 K | 1085.41 ± 0.27
313.15 K | 1080.43 ± 0.27

C[S+](C)[O-] [dimethyl sulfoxide] + CCCCn1cc[n+](C)c1.[Br-]
[1], m2 = 0
Conditions | mass density [kg/m3]
293.15 K | 1100.22 ± 0.28
303.15 K | 1090.36 ± 0.28
308.15 K | 1085.41 ± 0.28
313.15 K | 1080.45 ± 0.27
